In patent US20250319046A1, “PHENYLALANINE-BASED LAT1 INHIBITORS AND USES THEREOF” (MAXYMUNE THERAPEUTICS, INC., priority 2024, published 2025):

biological target: LAT1 (Homo sapiens (Human), UniProt Q01650); test: LAT1 uptake inhibition assay: [3H]-gabapentin competition uptake in LN229 cells; assay type: cell-based; settings: [3H]-gabapentin uptake, 15 min incubation in PBS, read-out: IC50, the concentration of test compound at which the [3H]-GP uptake was inhibited by 50%
Method: LAT1 Uptake Inhibition Assay
The ability of compounds to interact with LAT1 was measured using a radiolabeled competition uptake assay with [^3H]-Gabapentin ([^3H]-GP) (Perkin Elmer) in 96-well plates with LN229 cells (ATCC®). Ten (10)×10^3 (10,000) cells/well were plated in white, clear bottom plates and were allowed to grow for three (3) days. On the fourth day, the cells were washed and then incubated with 50,000 counts per minute (cpm) of [^3H]-GP in phosphate buffered saline (PBS) (VWR International) with increasing concentrations of test compounds in at least triplicate for 15 min. At end of the assay time, the incubation solution was removed, and plates were washed three times (3×) with 100 μL of ice-cold PBS buffer. One-hundred fifty (150) […] of scintillation fluid (VWR International) was added to each well, and the radioactivity retained within the cells was measured on a 96-well scintillation counter. Background uptake ([^3H]-GP uptake in the presence of 10 mM non-radiolabeled gabapentin (GP)) (MedKoo) was subtracted and data were normalized to the DMSO control ([^3H]-GP uptake in the absence of any competitor). Data were fitted to the Michaelis-Menten equation using GraphPad Prism (Version 8.2.0).

Sequence of LAT1 (Q01650 whole entry): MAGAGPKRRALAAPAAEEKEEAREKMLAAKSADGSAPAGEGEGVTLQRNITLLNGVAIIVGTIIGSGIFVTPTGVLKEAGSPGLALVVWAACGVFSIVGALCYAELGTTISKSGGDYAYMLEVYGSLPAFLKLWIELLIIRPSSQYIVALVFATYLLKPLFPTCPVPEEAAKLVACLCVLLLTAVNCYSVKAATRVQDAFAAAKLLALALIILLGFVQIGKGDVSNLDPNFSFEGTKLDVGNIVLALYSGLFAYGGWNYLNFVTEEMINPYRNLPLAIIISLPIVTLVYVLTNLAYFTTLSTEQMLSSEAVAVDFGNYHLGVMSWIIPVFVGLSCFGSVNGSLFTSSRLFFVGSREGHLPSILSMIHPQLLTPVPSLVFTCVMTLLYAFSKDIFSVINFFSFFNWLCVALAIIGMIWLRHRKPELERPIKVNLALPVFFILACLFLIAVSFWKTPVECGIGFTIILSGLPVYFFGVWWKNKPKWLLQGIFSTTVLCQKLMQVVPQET
Sequence of LAT1 (P08195 whole entry partner): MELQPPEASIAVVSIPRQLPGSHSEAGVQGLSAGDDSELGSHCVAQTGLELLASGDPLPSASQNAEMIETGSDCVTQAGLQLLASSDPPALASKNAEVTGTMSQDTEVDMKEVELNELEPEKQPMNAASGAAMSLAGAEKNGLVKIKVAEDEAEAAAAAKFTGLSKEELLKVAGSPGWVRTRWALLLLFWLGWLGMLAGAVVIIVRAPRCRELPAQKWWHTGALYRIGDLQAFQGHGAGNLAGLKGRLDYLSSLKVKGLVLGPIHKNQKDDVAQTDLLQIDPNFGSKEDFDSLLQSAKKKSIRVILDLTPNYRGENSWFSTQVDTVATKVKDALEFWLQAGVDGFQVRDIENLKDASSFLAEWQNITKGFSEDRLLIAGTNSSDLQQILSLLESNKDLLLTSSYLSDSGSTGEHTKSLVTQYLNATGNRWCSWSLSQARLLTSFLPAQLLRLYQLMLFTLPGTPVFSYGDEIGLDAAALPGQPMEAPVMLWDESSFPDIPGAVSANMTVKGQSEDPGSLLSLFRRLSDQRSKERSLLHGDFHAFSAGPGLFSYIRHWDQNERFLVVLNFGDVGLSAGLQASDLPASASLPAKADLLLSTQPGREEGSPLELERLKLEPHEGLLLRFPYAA

| SMILES | IC50 [nM] |
| --- | --- |
| N[C@@H](Cc1cc(NS(=O)(=O)c2ccccc2)cc(NS(=O)(=O)c2ccccc2)c1)C(=O)O [Compound 62, (S)-2-Amino-3-(3,5-bis(phenylsulfonamido)phenyl)propanoic Acid] | ≥ 10000 |
| Cc1ccc(NS(=O)(=O)c2cccc3ncccc23)cc1C[C@H](N)C(=O)O [Compound 9, (S)-2-Amino-3-(2-methyl-5-(quinoline-5-sulfonamido)phenyl)propanoic Acid] | 1000 to 10000 |
| Cc1ccc(NS(=O)(=O)c2cccnc2)cc1C[C@H](N)C(=O)O [Compound 11, (S)-2-Amino-3-(2-methyl-5-(pyridine-3-sulfonamido)phenyl)propanoic Acid] | 1000 to 10000 |
| CNS(=O)(=O)c1cccc(C[C@H](N)C(=O)O)c1 [Compound 72, (S)-2-Amino-3-(3-(N-methylsulfamoyl)phenyl)propanoic Acid] | ≥ 10000 |
| Cc1ccc([S+]([O-])Cc2ccccc2)cc1C[C@H](N)C(=O)O (stereo partly drawn) [Compound 64, (2S)-2-Amino-3-(5-(benzylsulfinyl)-2-methylphenyl)propanoic Acid] | 1000 to 10000 |
| COc1ccc(S(=O)(=O)Nc2ccc(C)c(C[C@H](N)C(=O)O)c2)cc1 [Compound 57, (S)-2-Amino-3-(5-((4-methoxyphenyl)sulfonamido)-2-methylphenyl)propanoic Acid] | 100 to 1000 |
| Cc1ccc(S(=O)(=O)Nc2ccccc2Br)cc1C[C@H](N)C(=O)O [Compound 75, (S)-2-Amino-3-(5-(N-(2-bromophenyl)sulfamoyl)-2-methylphenyl)propanoic Acid] | 100 to 1000 |
| Cc1ccc(S(=O)(=O)Cc2ccccc2)cc1C[C@H](N)C(=O)O [Compound 65, (S)-2-Amino-3-(5-(benzylsulfonyl)-2-methylphenyl)propanoic Acid] | 100 to 1000 |
| CN(C)c1cccc2c(S(=O)(=O)Nc3cccc(C[C@H](N)C(=O)O)c3)cccc12 [Compound 3, (S)-2-Amino-3-(3-((5-(dimethylamino)naphthalene)-1-sulfonamido)phenyl)propanoic Acid] | 100 to 1000 |

The remaining lines, values ahead:

| IC50 [nM] | SMILES |
| --- | --- |
| 100 to 1000 | Cc1ccc(S(=O)(=O)Nc2ccc(C)c(C[C@H](N)C(=O)O)c2)cc1 [Compound 7, (S)-2-Amino-3-(2-methyl-5-((4-methylphenyl)sulfonamido)phenyl)propanoic Acid] |
| 100 to 1000 | Cc1ccc(CSCc2ccccc2)cc1C[C@H](N)C(=O)O [Compound 55, (S)-2-Amino-3-(5-((benzylthio)methyl)-2-methylphenyl)propanoic Acid] |
| 100 to 1000 | Cc1ccc(NS(=O)(=O)c2c(Cl)cccc2Cl)cc1C[C@H](N)C(=O)O [Compound 42, (S)-2-Amino-3-(5-((2,6-dichlorophenyl)sulfonamido)-2-methylphenyl)propanoic Acid] |
| 100 to 1000 | Cc1ccc(N(C)S(=O)(=O)c2cccc3c(N(C)C)cccc23)cc1C[C@H](N)C(=O)O [Compound 16, (S)-2-Amino-3-(5-((5-(dimethylamino)-N-methylnaphthalene)-1-sulfonamido)-2-methylphenyl)propanoic Acid] |
